{"source": "patent US12023335B2", "about": "“Method for treating pancreatic cancer” (PTC THERAPEUTICS, INC., priority 2018, dated 2024)", "key": {"P-glycoprotein": {"biological_target": "T1, P-glycoprotein (Homo sapiens, UniProt P08183)", "T1 construct": "host or cells: MDCKII-mdr1 (canine kidney MDCKII cells; MDCKII-wt as control)", "T1 sequence (P08183 whole entry)": "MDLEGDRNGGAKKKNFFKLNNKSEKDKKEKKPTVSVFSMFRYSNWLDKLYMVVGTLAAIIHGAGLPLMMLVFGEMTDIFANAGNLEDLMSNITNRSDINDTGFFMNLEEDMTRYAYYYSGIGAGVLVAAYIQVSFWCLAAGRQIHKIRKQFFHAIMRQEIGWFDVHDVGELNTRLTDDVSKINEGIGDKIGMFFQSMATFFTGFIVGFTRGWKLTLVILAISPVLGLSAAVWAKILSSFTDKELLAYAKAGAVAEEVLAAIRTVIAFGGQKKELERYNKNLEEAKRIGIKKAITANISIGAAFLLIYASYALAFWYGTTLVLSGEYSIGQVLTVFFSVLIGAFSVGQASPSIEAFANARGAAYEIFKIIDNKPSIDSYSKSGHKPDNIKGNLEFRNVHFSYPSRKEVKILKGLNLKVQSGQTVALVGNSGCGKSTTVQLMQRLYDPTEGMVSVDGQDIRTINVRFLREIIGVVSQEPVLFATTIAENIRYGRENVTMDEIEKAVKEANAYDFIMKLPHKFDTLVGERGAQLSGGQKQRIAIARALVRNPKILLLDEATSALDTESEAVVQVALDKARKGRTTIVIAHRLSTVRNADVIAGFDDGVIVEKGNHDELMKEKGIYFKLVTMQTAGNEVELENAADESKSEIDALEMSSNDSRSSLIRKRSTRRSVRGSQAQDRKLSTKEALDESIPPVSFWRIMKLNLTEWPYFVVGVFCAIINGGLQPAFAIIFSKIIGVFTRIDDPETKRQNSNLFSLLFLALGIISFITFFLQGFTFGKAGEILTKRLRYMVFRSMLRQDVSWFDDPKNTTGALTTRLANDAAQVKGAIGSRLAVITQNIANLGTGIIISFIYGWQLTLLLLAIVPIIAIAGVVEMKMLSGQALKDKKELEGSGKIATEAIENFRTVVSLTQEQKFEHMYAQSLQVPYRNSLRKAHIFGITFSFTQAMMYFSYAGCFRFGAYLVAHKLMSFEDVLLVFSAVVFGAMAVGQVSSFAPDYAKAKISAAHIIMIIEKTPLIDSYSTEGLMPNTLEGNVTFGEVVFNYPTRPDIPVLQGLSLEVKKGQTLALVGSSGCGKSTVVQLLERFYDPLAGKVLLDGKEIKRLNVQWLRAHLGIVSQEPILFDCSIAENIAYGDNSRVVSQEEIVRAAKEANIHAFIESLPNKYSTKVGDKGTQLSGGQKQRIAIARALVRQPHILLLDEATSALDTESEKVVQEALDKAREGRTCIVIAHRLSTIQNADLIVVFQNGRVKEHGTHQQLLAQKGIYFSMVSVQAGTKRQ", "experiment": "P-glycoprotein substrate activity experiment (CC50 ratio MDCK-P-gp vs MDCK-WT)", "format": "in vitro ADME", "conditions": "72 hours, CellTiter-Glo (FIG. 4b)", "protocol": "MDCKII-mdr1 and MDCKII-wt cells were purchased from the Netherlands Cancer Institute, NKI-AVL. The cells were cultivated in Dulbecco's modified essential medium (DMEM), supplemented with 10% FBS and 1% Penn-Strep, and used between passage 3-9. Cells were seeded at a density of 3×10^3 cells/well in 96-well tissue culture treated plates. After 4 hours to allow cells to attach, cells were treated with test compound in the presence or absence of the P-glycoprotein inhibitor Valspodar. The plates were incubated at 37° C., 5% CO2 for 72 hours and ATP was measured vialuminescence using CellTiter-Glo® reagent (Promega). (FIG. 4b)"}, "[1]": {"system": "J1002VEH and J1002TAM cells", "experiment": "Viability and dose response of J1002VEH and J1002TAM cells (AlamarBlue)", "format": "cell-based, mouse", "protocol": "For proliferation curves, cells were plated in 96-well plates (Corning, 3603) and allowed to seed overnight. Replicate plates were plated for each time point since viability measurements were an endpoint procedure. The following day, cells were treated with Compound at indicated concentrations and treated with DMSO at the highest used concentration (always below 0.003%). Cells were treated for 96 hours, and viability was determined every 24 hours using AlamarBlue reagent (BioRad, BUF012B). Briefly, 10 μL of AlamarBlue was added to each well (100 μL), mixed briefly, and allowed to incubate at 37° C. and 5% CO2 for 4 hours. Following incubation, fluorescence was measured on a Promega multimode microplate reader. For analysis, background levels were subtracted from raw results, which were then normalized to be represented as a fold change compared to DMSO-treated cells on Day 0. All assays were carried out in at least triplicate with 4-8 technical replicates per treatment group, per experiment. (FIG. 1a and FIG. 10b)\nFor dose response curves, cells were plated in 96-well plates (Corning, 3603) and allowed to seed overnight. The following day, cells were treated with Compound 1. […] Cells were treated for 72 hours and then viability was determined using AlamarBlue reagent (BioRad, BUF012B). […] Following incubation, fluorescence was measured on a Promega multimode microplate reader. […]"}}, "note": "“Also recorded” adds a separate entry of the source."}
{"smiles": "Cc1nc2ccc(F)cc2n1-c1nc(N)c(F)c(Nc2ccc(C(F)(F)F)cc2)n1", "note": "[Compound 1, 5-fluoro-2-(6-fluoro-2-methyl-1H-benzo[d]imidazol-1-yl)-N4-[4-(trifluoromethyl)phenyl]pyrimidine-4,6-diamine]", "values": [{"measurement": "PGP substrate activity (ratio of CC50 values MDCK-P-gp vs MDCK-WT)", "setting": "P-glycoprotein", "result": "lack of P-glycoprotein (PGP) substrate activity; also recorded: do not function as a PGP substrate"}, {"measurement": "relative viability of J1002VEH and J1002TAM cells", "setting": "[1]; 0.1 μM or 1.0 μM over 96 hours (FIG. 10b)", "result": "dose and time-dependent decrease in viability of cells dependent on BMI-1 protein expression"}, {"measurement": "dose response in J1002VEH and J1002TAM cells", "setting": "[1]; 72 hours (FIG. 10c)", "result": "sub-M activity toward reduction in BMI-1 protein expression"}]}
